Laboratory results as given in publication PMC8154566, “Scaffold-Hopping Strategy on a Series of Proteasome Inhibitors Led to a Preclinical Candidate for the Treatment of Visceral Leishmaniasis” (Journal of Medicinal Chemistry, 2021).
≈ marks a conversion by molar mass, not a printed value. Read-outs that look alike come from different tables or passages of the source. Marks after values point to notes of the source that are not given here.

Columns and labels:
L. donovani amastigotes [1] = details: cited from earlier work; for LdInMac pIC50: supplementary csv, flagged as reported previously in the main tables
THP-1 cells = details: cited from earlier work; for THP1 pIC50: supplementary csv, flagged as reported previously in the main tables
[2] = supplementary csv; flagged as reported previously in Table 5; cited from earlier work
L. donovani amastigotes [3] = assay: INMAC assay: intramacrophage L. donovani in differentiated THP-1 cells; type: cell-based, Leishmania donovani; details: Leishmania donovani, THP-1, INMAC
How it was run: (§1)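 Intramacrophage L. donovani amastigotes in differentiated THP-1 cells, run per an earlier protocol but with 96 h compound exposure instead of 72 h. Aqueous solubility also follows a previously described method.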

[4] = Kinetic aqueous solubility by CLND; type: physicochemical; details: CLND
How it was run: as §1

in vivo = type: in vivo; details: mouse
Protocol: Intramacrophage L. donovani Assay. This assay was conducted as previously described, except for compound exposure time, which was 96 h instead of 72 h.4 […]
All regulated procedures on living animals were carried out under the authority of a project license issued by the Home Office under the Animals (Scientific Procedures) Act 1986, as amended in 2012 (and in compliance with EU Directive EU/2010/63). Infected animals had access to food and water ad libitum and were housed under a 12 hour light/dark photoperiod. Animals used in these experiments were female NMRI and Balb/c mice (Harlan, UK).
Test compound DDD01008714 was dosed orally (P.O.) at 10 mg free base/kg (dose volume 10 mL/kg; dose vehicle: 10% (vol/vol) dimethyl sulfoxide (DMSO), 40% polyethylene glycol 400 (PEG400) and 50% deionized water) to female NMRI mice (n = 3) or intravenously (I.V.) at 3 mg free base/kg (dose volume 5 mL/kg; dose vehicle: 10% (vol/vol) dimethyl sulfoxide (DMSO) and 90% Saline) to female Balb/c mice (n = 3). Blood samples (10 μL) where taken from the tail vein of […]
samples for I.V. leg only) and mixed with two volumes of deionized water (20 μL). After suitable sample preparation, the concentration of test compound in the whole blood from treated mice was determined by UPLC-MS/MS using a Quattro Premier XE (Waters, USA). Pharmacokinetic parameters were derived from the mean blood concentration time curve using PK solutions software v 2.0 (Summit Research Services, USA). […]
of concentration vs. Time for 4, dosed at 10 mg/kg. Extrapolated to 50 mg/kg assuming a linear dose increase, showing potential coverage above EC90 for approximately 6 hours […]
(1 picture or pasted object on this page, not shown here)

[5] = test system: infected mouse model of VL; assay: Infected mouse model of VL; type: in vivo; details: 50 mg/kg ip, b.i.d for 5 days
Protocol: In vivo Mouse Efficacy Studies. In vivo studies were carried out as previously described, with minor modifications.7 Briefly: Control drug used was Miltefosine (30 mg/kg orally, twice daily for 5 days), vehicle used was 10% (v/v) dimethyl sulfoxide (DMSO), 40% polyethylene glycol 400, and 50% deionized water (10 Ml/kg orally, twice daily for 5 days) and mice were treated with test compound intraperitoneally (50 mg/kg twice daily for 5 days).

[6] = parameters: method as in PMID 30962368; details: after 3 h; cited from earlier work
[7] = parameters: method as in PMID 30962368; details: after 3 h; cited from earlier work; remark: listed apart in the source
[8] = parameters: method as in PMID 30962368; details: cited from earlier work
[9] = cited from earlier work
[10] = female, Balb/c, in vivo, iv PK 3 mg/kg
[11] = female, NMRI, in vivo, po PK 10 mg/kg

O=C(Nc1ccc(F)c(-c2nc3cc(N4CCOCC4)cnn3n2)c1)N1CCCC1 [Compound 24, N-(4-Fluoro-3-(7-morpholino-[1,2,4]triazolo[1,5-b]pyridazin-2-yl)phenyl)pyrrolidine-1-carboxamide]
INMAC pEC50 (L. donovani amastigotes [1]; Table 5): 6.1 | LdInMac pIC50 (L. donovani amastigotes [1]): 6.1 | THP-1 pEC50 (THP-1 cells; Table 5): <4.3 | THP1 pIC50 (THP-1 cells): <4.3 | Aqueous Solubility [2]: 420 µM

O=C(Nc1ccc(F)c(-c2cn3cc(N4CCOCC4)cnc3n2)c1)N1CCCC1 [Compound 4]
EC90 (L. donovani amastigotes [3]; pEC90 5.7 expressed as concentration, read-out: EC90): 0.78 µg/mL | EC90 (L. donovani amastigotes [3]; read-out: pEC90 (converted)): 2000 nM | solubility ([4]; Table 1, kinetic solubility, read-out: aqueous solubility): 150 µM (≈ 61.6 µg/mL) | solubility ([4]; Table 2, kinetic, read-out: Aq. solubility): 150 µM (≈ 61.6 µg/mL) | AUC at 24 h (in vivo; [10]): 2250 ng·h/mL | half-life at 24 h (in vivo; [10]): 30 min | bioavailability at 24 h (in vivo; female, NMRI, in vivo, po PK 10 mg/kg vs iv 3 mg/kg): 57% | AUC at 24 h (in vivo; [11]): 4300 ng·h/mL | Cmax at 24 h (in vivo; [11]): 1300 ng/mL | Tmax at 24 h (in vivo; [11]): 30 min | Clb (in vivo; iv PK 3 mg/kg): 22 mL/min/kg | Vdss (in vivo; listed under po PK (10 mg/kg)): 0.8 L/kg | time with blood levels above EC90 (in vivo; oral dose of 10 mg/kg): around 2 h | % reduction in parasitemia [5]: 98% | INMAC pEC50 (L. donovani amastigotes [1]; Table 1, five independent replicates, SD ≤0.2): 6.2 | INMAC pEC50 (L. donovani amastigotes [1]; Table 2): 6.2^e | LdInMac pIC50 (L. donovani amastigotes [1]): 6.2 | THP-1 cells pEC50 (THP-1 cells; Table 1): <4.3 | THP1 pIC50 (THP-1 cells): <4.3 | mouse plasma stability, compound remaining [6]: 100% | human plasma stability, compound remaining [7]: 100% | Ames assay result [8]: positive | CLi ([9]; Table 1, mouse liver microsomes): <0.5 mL/min/g | Mouse CLi ([9]; Table 2, mouse liver microsomes): <0.5^e mL/min/g | Cli (mouse, ml/min/g) ([9]; supplementary csv, mouse, flagged as reported previously in the main tables): <0.5 mL/min/g
